Publication PMC12016531 (Applied and Environmental Microbiology, 2025)

Experiments:
[1] = test system: L. monocytogenes ATCC 19111; assay: MIC/MBC microdilution; format: cell-based, Listeria monocytogenes; conditions: lowest concentration that killed 99.9%; TSB-YE; highest concentration 100 µM
[2] = test system: L. monocytogenes ATCC 15313; assay: MIC/MBC microdilution; format: cell-based, Listeria monocytogenes; conditions: lowest concentration that killed 99.9%; TSB-YE; highest concentration 100 µM
[3] = test system: Pseudomonas aeruginosa ATCC 27853; assay: MIC/MBC microdilution; format: cell-based; conditions: NB, highest concentration 100 µM
Protocol: (§1) The microdilution method ([25]) was used to measure the MIC of mycoidesin against indicator strains (Table S2). HPLC-purified mycoidesin was weighed and dissolved in a liquid culture medium to prepare various concentrations of mycoidesin (200.00, 100.00, 50.00, 25.00, 12.50, 6.25, 3.13, 1.56, 0.78, 0.39, 0.20, and 0.10 µM). A volume of 50 µL of different concentrations of mycoidesin solutions and 50 µL culture (1 × 10^6 CFU/mL) of the indicator strain were mixed in 96-well plates. The final concentrations of mycoidesin were 100.00, 50.00, 25.00, 12.50, 6.25, 3.13, 1.56, 0.78, 0.39, 0.20, 0.10, and 0.05 µM. […] The minimum bactericidal concentration (MBC) was the lowest concentration that killed 99.9% of the bacterial population. Nisin A was purified (Cayman Chemical, USA) as previously described ([26]) and was used to measure and compare the MIC values of L. monocytogenes strains and mycoidesin.

[4] = test system: Salmonella enterica serotype Paratyphi CMCC 50093; assay: MIC/MBC microdilution; format: cell-based; conditions: NB, highest concentration 100 µM
Protocol: as §1

[5] = test system: Serratia marcescens CMCC 41002; assay: MIC/MBC microdilution; format: cell-based; conditions: NB, highest concentration 100 µM
Protocol: as §1

[6] = test system: L. monocytogenes ATCC19111; assay: Intracellular accumulation of UDP-MurNAc-pentapeptide; format: cell-based, Listeria monocytogenes; conditions: mycoidesin 1× and 2× MIC, vancomycin 10× MIC; 60 min; chloramphenicol 130 µg/mL pre-incubation 15 min; HPLC, MS
Protocol: Bacillus cereus CMCC63301 and L. monocytogenes ATCC19111 were grown to an OD600 of 0.3 and incubated with chloramphenicol (130 µg/mL) for 15 min. Mycoidesin (1× and 2× MIC) and vancomycin (10× MIC; positive control) were added and incubated for 60 min. The cells were collected, added to boiling water, treated for 15 min, centrifuged, and the supernatant was lyophilized. The intracellular accumulation of the peptidoglycan precursor UDP-MurNAc-pentapeptide was analyzed using HPLC (Hypersil ODS column) and identified via mass spectrometry ([27]).

[7] = test system: L. monocytogenes ATCC19111; assay: Time-kill curves (OD600 and CFU); format: cell-based, Listeria monocytogenes
Description: Cell growth was monitored hourly by measuring CFU on TSB plates and OD600 values of the cultures.

B. subtilis CMCC63501 = assay: Stability: residual antimicrobial activity by agar diffusion; format: physicochemical, Bacillus subtilis; conditions: up to 12 h
Protocol: After treatment for 2, 4, 6, 8, 10, and 12 h, the residual antimicrobial activity of the samples was measured using the agar diffusion method, with B. subtilis CMCC63501 as the indicator strain.

[8] = lowest concentration that killed 99.9%

C/C=C1\NC(=O)CNC(=O)[C@H](CCSC)NC(=O)[C@@H]2CS[C@@H](C)[C@@H](NC(=O)[C@@H]3CSC[C@@H](NC(=O)[C@H](CC(C)C)NC(=O)[C@H](CC(N)=O)NC(=O)[C@@H](N)Cc4ccc(O)cc4)C(=O)N[C@@H](C)C(=O)N[C@@H](C)C(=O)N[C@@H]([C@@H](C)CC)C(=O)N[C@@H](C)C(=O)N[C@@H](CC(=O)O)C(=O)N[C@@H](C)C(=O)N[C@@H](C)C(=O)NCC(=O)N[C@@H](CC(C)C)C(=O)N[C@@H](CCCCN)C(=O)NCC(=O)N[C@@H](CC(N)=O)C(=O)N[C@@H](Cc4ccc(O)cc4)C(=O)NCC(=O)N[C@@H](CCCCN)C(=O)N[C@@H](Cc4ccccc4)C(=O)N3)C(=O)N[C@@H](Cc3ccc(O)cc3)C(=O)N[C@H](CSC[C@@H](C(=O)NCC(=O)N[C@@H](CO)C(=O)O)NC(=O)[C@H](CO)NC(=O)[C@H](C(C)C)NC1=O)C(=O)N[C@@H](C)C(=O)N[C@@H](CCC(=O)O)C(=O)N2 [mycoidesin]
MBC [1]: NA (No activity was detected even at the highest concentration of mycoidesin (100 µM)) | MBC [2]: NA (No activity was detected even at the highest concentration of mycoidesin (100 µM)) | MBC [3, 8]: NA (No activity was detected even at the highest concentration of mycoidesin (100 µM)) | MIC ([3]; microdilution, 30°C, 16 h): NA (No activity was detected even at the highest concentration of mycoidesin (100 µM)) | MBC [4, 8]: NA (No activity was detected even at the highest concentration of mycoidesin (100 µM)) | MIC ([4]; microdilution, 30°C, 16 h): NA (No activity was detected even at the highest concentration of mycoidesin (100 µM)) | MBC [5, 8]: NA (No activity was detected even at the highest concentration of mycoidesin (100 µM)) | MIC ([5]; microdilution, 30°C, 16 h): NA (No activity was detected even at the highest concentration of mycoidesin (100 µM)) | Intracellular accumulation of UDP-MurNAc-pentapeptide [6]: observed | effect on growth ([7]; 1×–32× MIC (0.39–12.5 µM), TSB, 30°C, 3 h, OD600): suppressed by mycoidesin in a time- and concentration-dependent manner | type of antimicrobial effect ([7]; low and high concentrations (1×–32× MIC, 0.39–12.5 µM)): bacteriostatic activity | cell death (viable count) ([7]; up to 32× MIC (12.5 µM), 30°C, 3 h, CFU): did not cause L. monocytogenes cell membrane damage or cell death | residual antimicrobial activity (B. subtilis CMCC63501; pH 7.0, 37°C, mycoidesin 6.25 µM, nisin A 12.5 µM (4× MIC)): remained unchanged | residual antimicrobial activity (B. subtilis CMCC63501; pH 7.0, 60°C, mycoidesin 6.25 µM (4× MIC)): decreased with increasing incubation time | residual antimicrobial activity (B. subtilis CMCC63501; pH 8.0, 37°C, mycoidesin 6.25 µM, nisin A 12.5 µM (4× MIC)): decreased | residual antimicrobial activity (B. subtilis CMCC63501; pH 8.0, 60°C, mycoidesin 6.25 µM (4× MIC)): decreased with increasing incubation time
